Several values for one entry are separate records, joined by “and”; a condition that tells them apart may be missing. Identical values can stand only once. Counter-ions that a name gives are not always drawn. Like-named read-outs stand apart in the source and are kept apart here.
Assays:
cdk2/cyclin E = biological target: T1, cdk2/cyclin E (Homo sapiens, UniProt P24941); assay: Cyclin-Dependent Kinase 2 Assay (cdk-2 inhibition); assay type: biochemical; details: GST-Rb substrate, 30 min at 30° C.
T1 construct: made in house; host or cells: insect cells (baculovirus co-infection)
Outline: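 GST-Rb bound to glutathione-Sepharose beads (0.5 μg/well) as substrate in 50 mM HEPES pH 7.5, 10 mM MgCl2, 1 mM EGTA. Recombinant cdk2/cyclin E at 0.1 μg per 100 μl, 30 min at 30 °C. Reaction stopped by filtration, TNEN washes, scintillation counting.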

cdk4/cyclin D1 = biological target: T2, cdk4/cyclin D1 (Homo sapiens, UniProt P11802); assay: Cyclin-dependent kinase 4 Assay; assay type: biochemical; details: cdk4/cyclin D1, GST-Rb substrate, 10 μM ATP, 30 min at 37° C.; read-out: CDK4 Inhibition IC50
T2 construct: made in house; host or cells: Sf9 insect cells (Bac-to-Bac baculovirus, pFastBac)
Outline: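 Insect-cell lysate of coexpressed human cdk4/cyclin D1 (0.1 μg) phosphorylated bead-bound GST-Rb (0.5 μg) in 50 mM HEPES pH 7.5, 10 mM MgCl2, 1 mM EGTA for 30 min at 37 °C. Filters were washed with TNEN and scintillation-counted; IC50 values derived.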

MCF-7 = assay: In vitro tumor cell proliferation, MCF-7; assay type: cell-based, human; details: read-out: In vitro Tumor Cell Proliferation (IC50, μM) Breast MCF-7
Description: (§1) The proliferation of tumor cells was measured using a sulforhodamine B assay as described in Skehan, P., et al., J. Natl. Cancer Inst. […] Tumor cells were harvested with trypsin-EDTA, cells that excluded trypan blue were counted, added to 96-well plates and incubated overnight at 37° C. Drug was added to the wells following dilution in culture medium. Three days later, the medium was removed and replenished with medium containing fresh drug and incubated an additional 4 days. The cells were then fixed with 0.1 ml 10% trichloroacetic acid for 60 min at 4° C. The plates were rinsed five times with tap water, air-dried and stained for 30 min with 0.4% sulforhodamine B in 1% acetic acid and air-dried.
(§2) Alternatively, the CyQUANT cell proliferation assay was used to quantify tumor cell proliferation. Tumor cells were harvested with trypsin-EDTA, cells that excluded trypan blue were counted, added to 96-well plates and incubated overnight at 37° C. Drug was added to the wells following dilution in culture medium. Three days later the medium was removed and the plates frozen at −80° C. for at least 30 minutes.
MCF7 is a human breast adenocarcinoma, hormone-dependent (HTB 22);

MDA-MB-231 = assay: In vitro tumor cell proliferation, MDA-MB-231; assay type: cell-based, human; details: read-out: In vitro Tumor Cell Proliferation (IC50, μM) Breast MDA-MB-231
Outline: (§3)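 SRB read-out: 3-day drug exposure, medium and drug renewed, 4 further days, TCA fixation at 4° C, 0.4% SRB stain. CyQUANT alternative: 3-day drug exposure, then plates frozen at −80° C ≥30 min. Cells plated overnight at 37° C before dosing.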

HT-29 = assay: In vitro tumor cell proliferation, HT-29; assay type: cell-based, human; details: read-out: In vitro Tumor Cell Proliferation (IC50, μM) Colon HT-29 (converted)
Outline: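 HT-29 human colon adenocarcinoma cells plated overnight at 37° C., then exposed to drug for 3 days, medium with fresh drug replaced for a further 4 days. Cells fixed with 10% TCA and stained with 0.4% sulforhodamine B; alternatively, CyQUANT read after 3 days of drug exposure.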

HCT-15 = assay: In vitro tumor cell proliferation, HCT-15; assay type: cell-based, human; details: read-out: In vitro Tumor Cell Proliferation (IC50, μM) Colon HCT-15
Description: as §1, §2

A549 = assay: In vitro tumor cell proliferation, A549; assay type: cell-based, human; details: read-out: In vitro Tumor Cell Proliferation (IC50, μM) Lung A549
Outline: as §3

DMS-114 = assay: In vitro tumor cell proliferation, DMS-114; assay type: cell-based, human; details: read-out: In vitro Tumor Cell Proliferation (IC50, μM) Lung DMS-114
Outline: as §3

PC-3 = assay: In vitro tumor cell proliferation, PC-3; assay type: cell-based, human; details: read-out: In vitro Tumor Cell Proliferation (IC50, μM) Prostate PC-3
Outline: as §3

DU 145 = assay: In vitro tumor cell proliferation, DU 145; assay type: cell-based, human
Outline: as §3

[1] = Homo sapiens, MCF7, values without *
[2] = values without *, dihydrochloride
[3] = Homo sapiens, MDA-MB-231, values without *
[4] = Homo sapiens, HT-29, values without *
[5] = Homo sapiens, HCT-15, values without *
[6] = Homo sapiens, A549, values without *
[7] = Homo sapiens, DMS-114, values without *
[8] = Homo sapiens, PC-3, values without *
[9] = Homo sapiens, DU-145, values without *, read-out: In vitro Tumor Cell Proliferation (IC50, μM) Prostate DUI45
[10] = values without *, dihydrochloride, read-out: In vitro Tumor Cell Proliferation (IC50, μM) Prostate DUI45

T2 sequence (P11802 whole entry): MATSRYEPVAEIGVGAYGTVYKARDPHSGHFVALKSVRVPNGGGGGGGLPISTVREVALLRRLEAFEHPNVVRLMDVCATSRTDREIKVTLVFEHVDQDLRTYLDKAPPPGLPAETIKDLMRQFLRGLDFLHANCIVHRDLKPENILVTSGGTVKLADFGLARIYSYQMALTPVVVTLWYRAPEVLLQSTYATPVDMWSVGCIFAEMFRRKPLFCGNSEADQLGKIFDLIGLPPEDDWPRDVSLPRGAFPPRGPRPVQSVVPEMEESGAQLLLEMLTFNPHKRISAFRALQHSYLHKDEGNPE
T2 sequence (P24385 whole entry partner): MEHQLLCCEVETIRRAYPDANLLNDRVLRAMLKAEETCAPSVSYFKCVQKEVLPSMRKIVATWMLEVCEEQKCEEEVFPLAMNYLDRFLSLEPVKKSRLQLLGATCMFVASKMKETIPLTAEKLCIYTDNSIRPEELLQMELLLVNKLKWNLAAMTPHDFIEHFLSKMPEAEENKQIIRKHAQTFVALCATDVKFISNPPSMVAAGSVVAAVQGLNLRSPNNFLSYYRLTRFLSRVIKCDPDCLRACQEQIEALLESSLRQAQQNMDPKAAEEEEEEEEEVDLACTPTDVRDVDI

Row | IC50 (cdk2/cyclin E) | IC50 (cdk4/cyclin D1) | IC50 (MCF-7; [1]) | IC50 (MCF-7; [2]) | IC50 (MDA-MB-231; [3]) | IC50 (MDA-MB-231; [2]) | IC50 (HT-29; [4]) | IC50 (HT-29; [2]) | IC50 (HCT-15; [5]) | IC50 (HCT-15; [2]) | IC50 (A549; [6]) | IC50 (A549; [2]) | IC50 (DMS-114; [7]) | IC50 (DMS-114; [2]) | IC50 (PC-3; [8]) | IC50 (PC-3; [2]) | IC50 (DU 145; [9]) | IC50 (DU 145; [10]) | SMILES | other results
1 | 33 nM and 17 nM | 390 nM and 660 nM | 0.59 µM | 0.81 µM | 0.95 µM | 1.2 µM | 0.92 µM | 1.5 µM | 3.9 µM | 3.6 µM | 0.6 µM | 0.63 µM | 0.49 µM | 0.73 µM | 0.37 µM |  | 0.54 µM | 0.6 µM | CCCCNc1nc(N[C@H]2CC[C@H](N)CC2)nc2c1ncn2C1CCCC1 [Example 3, 2-[Trans-(4-aminocylcohexyl)amino]-6-(butylamino)-9-cyclopentylpurine dihydrochloride] | 
2 | 140 nM | 190 nM and 300 nM | 1.1 µM | 1.8 µM | 1.2 µM | 1.7 µM | 1.6 µM |  | 1.9 µM |  | 1.7 µM | 0.98 µM | 1.5 µM |  | 0.97 µM | 0.79 µM | 0.97 µM | 1.8 µM | N[C@H]1CC[C@H](Nc2nc(NCc3ccc(Cl)c(Cl)c3)c3ncn(C4CCCC4)c3n2)CC1 [Example 10, 2-[Trans-(4-aminocyclohexyl)amino]-6-[(3,4-dichlorobenzyl)amino]-9-cyclopentylpurine dihydrochloride] | 
3 | 720 nM | 11000 nM and 6700 nM | 4.1 µM | 2.5 µM | 5.9 µM | 4.4 µM | 6.3 µM | 5.1 µM | 9.4 µM | 7.8 µM | 6.4 µM | 5.8 µM | 7.4 µM | 5.1 µM | 5 µM | 2.8 µM | 6.2 µM | 5 µM | C[C@@H](Nc1nc(NC2CCC(N)CC2)nc2c1ncn2C1CCCC1)c1ccccc1 (stereo partly drawn) [Example 16, (R)-2-[Trans-(4-aminocyclohexyl)amino]-6-[(α-methylbenzylamino]-9-cyclopentylpurinedihydrochloride] | 
4 | 130 nM | 570 nM and 900 nM | 0.34 µM | 0.47 µM |  |  | 0.16 µM | 0.17 µM and 0.28 µM | 1.4 µM | 1 µM | 0.15 µM |  | 0.14 µM | 0.13 µM | 0.13 µM | 0.23 µM | 0.39 µM | 0.38 µM and 0.51 µM | N[C@H]1CC[C@H](Nc2nc(NCCCc3ccccc3)c3ncn(C4CCCC4)c3n2)CC1 [Example 24, 2-[Trans-(4-aminocyclohexyl)amino]-6-[3-(phenyl)propylamino]-9-cyclopentylpurine dihydrochloride] | IC50 (MCF-7; Homo sapiens, MCF7, values marked * (mark not explained)): 0.42 µM; IC50 (MDA-MB-231; Homo sapiens, MDA-MB-231, values marked * (mark not explained)): 0.24 µM; IC50 (HT-29; Homo sapiens, HT-29, values marked * (mark not explained)): 0.19 µM; IC50 (HCT-15; Homo sapiens, HCT-15, values marked * (mark not explained)): 0.99 µM; IC50 (A549; Homo sapiens, A549, values marked * (mark not explained)): 0.11 µM; IC50 (DMS-114; Homo sapiens, DMS-114, values marked * (mark not explained)): 0.07 µM; IC50 (PC-3; Homo sapiens, PC-3, values marked * (mark not explained)): 0.2 µM; IC50 (DU 145; Homo sapiens, DU-145, values marked * (mark not explained), read-out: In vitro Tumor Cell Proliferation (IC50, μM) Prostate DUI45): 0.54 µM
5 | 120 nM | 1100 nM and 600 nM | 1.1 µM | 1.3 µM | 1.4 µM | 2 µM | 1.5 µM | 1.9 µM | 3.1 µM | 3.3 µM | 0.8 µM | 0.94 µM | 0.88 µM | 0.91 µM | 0.68 µM |  | 0.89 µM | 1.1 µM | CC(C)CCNc1nc(N[C@H]2CC[C@H](N)CC2)nc2c1ncn2C1CCCC1 [Example 36, 2-[Trans-(4-aminocyclohexyl)amino]-6-[(3-methylbutyl)amino]-9-cyclopentylpurine dihydrochloride] | 
6 | 160 nM | 250 nM | 1.2 µM | 1.6 µM | 2.1 µM | 2.5 µM | 2.2 µM | 2.8 µM | 3.4 µM | 3.2 µM | 1.1 µM | 1 µM | 0.92 µM | 1.2 µM | 0.89 µM | 0.92 µM | 1.2 µM | 1.4 µM | N[C@H]1CC[C@H](Nc2nc(NCCc3ccccc3)c3ncn(C4CCCC4)c3n2)CC1 [Example 43, 2-[Trans-(4-aminocyclohexyl)amino-6-[2-(phenyl)ethylamino]-9-cyclopentylpurinedihydrochloride] | 

Row | SMILES | IC50 (cdk2/cyclin E) | IC50 (cdk4/cyclin D1) | IC50 (MCF-7; [1]) | IC50 (MCF-7; [2]) | IC50 (MDA-MB-231; [3]) | IC50 (MDA-MB-231; [2]) | IC50 (HT-29; [4]) | IC50 (HT-29; [2]) | IC50 (HCT-15; [5]) | IC50 (HCT-15; [2]) | IC50 (A549; [6]) | IC50 (A549; [2]) | IC50 (DMS-114; [7]) | IC50 (DMS-114; [2]) | IC50 (PC-3; [8]) | IC50 (PC-3; [2]) | IC50 (DU 145; [9]) | IC50 (DU 145; [10]) | other results
7 | N[C@H]1CC[C@H](Nc2nc(NCc3cccc(I)c3)c3ncn(C4CCCC4)c3n2)CC1 [Example 1, 2-[Trans-(4-aminocyclohexyl)amino]-6-(3-iodobenzylamino)-9-cyclopentylpurine dihydrochloride] | 50 nM and 70 nM and 85 nM and 37 nM and 55 nM and 65 nM | 2000 nM | 0.7 µM | 0.6 µM | 1.1 µM | 0.8 µM | 0.9 µM | 1 µM and 1.6 µM | 2.2 µM | 1.9 µM | 1.1 µM | 1 µM | 1.2 µM | 0.9 µM | 1.9 µM | 1.1 µM and 1.2 µM |  |  | IC50 (DU 145; Homo sapiens, DU-145, read-out: In vitro Tumor Cell Proliferation (IC50, μM) Prostate DUI45, values without *): 2 µM; IC50 (DU 145; read-out: In vitro Tumor Cell Proliferation (IC50, μM) Prostate DUI45, values without *, dihydrochloride): 1.6 µM and 1.2 µM
